Laboratory results from patent US11439637B2, “Antiproliferative compounds and bispecific antibody against BCMA and CD3 for combined use” (Celgene Corporation, priority 2018, dated 2022).
Entries after “also recorded” stand apart in the source; their conditions may differ.

Assays:
[1] = tested on: lenalidomide-resistant multiple myeloma cell line H929-1051; assay: Co-cultures of effector T cells and lenalidomide-resistant multiple myeloma target cells after pretreatment with compounds; type: cell-based, human; conditions: H929-1051 target cells pretreated 72 hours with Compound 2 (1 nM) or pomalidomide (100 nM), washed; co-culture 72 hours, E:T 1:3; vs DMSO
Excerpt: Co-cultures of effector T cells (E) and lenalidomide-resistant multiple myeloma target cells (T) after pretreatment with compounds. CD3+ T-cells were isolated from peripheral blood mononuclear cell fractions from three different healthy donors (donors D, E and F) using magnetic-activated cell sorting. Cells were thawed in RPMI 1640 culture media supplemented with 10% (v/v) fetal bovine serum (FBS), non-essential amino acids, sodium pyruvate and penicillin/streptomycin. All cell cultures and cell treatments were performed in a 37° C., 5% CO2 incubator for time periods as indicated. T-cells were then labeled with CFSE (carboxyfluorescein succinimidyl ester) according to the manufacturer's instructions, and allowed to recover overnight in the presence of 1 ng/mL human IL-7. The lenalidomide-resistant multiple myeloma cell line H929-1051 was generated by long-term culture in the presence of increasing concentrations of lenalidomide, as previously described (Ghandi et al. Br. J. Haematol. 2014 January; 164(2):233-44) using methods described (Lopez-Girona et al. Leukemia. 2012 November; 26(11):2326-35). H929-1051 cells were labeled with CellTrace™ Violet, then pretreated with DMSO (control), pomalidomide, or Compound 2 as a single agent for 72 hours. T-cells and target cells were then washed to remove compounds and co-cultured in the presence of increasing concentrations of the bispecific antibody specifically binding to human B cell maturation antigen (BCMA) and to human CD3ε (CD3) as provided herein, for 72 hours, at a fixed effector T-cell (E) to target cell (T) ratio of 1:3. The cells were collected at the end of co-culture for analysis of target cell apoptosis and necrosis by flow cytometry using APC Annexin V Apoptosis Detection Kit with 7-AAD, following the manufacturer's directions (BioLegend).

[2] = tested on: multiple myeloma OPM-2 cell line; assay: Co-cultures of effector T cells and target cells after pretreatment with compounds, cytotoxicity assays with OPM-2 cells; type: cell-based, human; conditions: E:T 1:5
Protocol: (§1) CD3+ T-cells were isolated from peripheral blood mononuclear cell fractions from healthy donors using magnetic-activated cell sorting. Cells were thawed in RPMI 1640 culture media supplemented with 10% (v/v) fetal bovine serum (FBS), non-essential amino acids and sodium pyruvate. All cell cultures and cell treatments were performed in a 37° C., 5% CO2 incubator for time periods as indicated. T-cells were then labeled with CFSE (carboxyfluorescein succinimidyl ester) according to the manufacturer's instructions, and allowed to recover overnight in the presence of 1 ng/mL human IL-7. T-cells were treated with DMSO (control) or Compound 2 as single agent for 16 hours before co-culture. The multiple myeloma H929 and OPM-2 cell lines or the plasma cell leukemia (PCL) cell line L363 were labeled with CellTrace™ Violet, then pretreated with DMSO (control) or Compound 2 as a single agent for 72 hours. T-cells and target cells were then washed to remove compounds and co-cultured in the presence of increasing concentrations of a bispecific antibody specifically binding to human B cell maturation antigen (BCMA) and to human CD3ε (CD3) as provided herein, for 72 hours, at different effector T-cell (E) to target cell (T) ratios. The cells were collected at the end of co-culture for analysis of target cell apoptosis and necrosis by flow cytometry using APC Annexin V Apoptosis Detection Kit with 7-AAD, following the manufacturer's directions (BioLegend).

[3] = tested on: multiple myeloma H929 cell line; assay: Co-cultures of effector T cells and target cells after pretreatment with compounds, bispecific antibody-induced target cell killing (H929); type: cell-based, human; conditions: H929 target cells pretreated with Compound 2 (1 nM) for 72 hours, washed; co-culture 72 hours, E:T 1:3; vs DMSO
Protocol: as §1, with “The cells were collected at the end of co-culture for analysis of target cell apoptosis and necrosis by flow cytometry using APC Annexin V Apoptosis Detection Kit with 7-AAD, following the manufacturer's directions (BioLegend).” left out

[4] = tested on: plasma cell leukemia (PCL) cell line L363; assay: Co-cultures of effector T cells and target cells after pretreatment with compounds, bispecific antibody-induced target cell killing (L363); type: cell-based, human; conditions: L363 target cells pretreated with Compound 2 (1 nM) for 72 hours, washed; co-culture 72 hours, E:T 1:1; vs DMSO
Protocol: as §1, with “The cells were collected at the end of co-culture for analysis of target cell apoptosis and necrosis by flow cytometry using APC Annexin V Apoptosis Detection Kit with 7-AAD, following the manufacturer's directions (BioLegend).” left out

[5] = tested on: multiple myeloma H929 cell line; assay: Co-cultures of effector T cells and target cells with concurrent compound treatments; type: cell-based, human; conditions: concurrent exposure to Compound 2 (1 nM) for 72 hours, T-cells of three donors, E:T 1:3, vs DMSO
Protocol: CD3+ T-cells were isolated from peripheral blood mononuclear cell fractions from three different healthy donors (donors A, B and C) using magnetic-activated cell sorting. Cells were thawed in RPMI 1640 culture media supplemented with 10% (v/v) FBS, non-essential amino acids, sodium pyruvate and penicillin/streptomycin. All cell cultures and treatments were performed in a 37° C., 5% CO2 incubator for time periods as indicated. T-cells were then labeled with CFSE (carboxyfluorescein succinimidyl ester) according to the manufacturer's instructions, and allowed to recover overnight in the presence of 1 ng/mL human IL-7. The multiple myeloma H929 cell line was labeled with CellTrace™ Violet, and allowed to recover overnight. T-cells and target cells were then washed and co-cultured in the presence of increasing concentrations of bispecific antibody specifically binding to human B cell maturation antigen (BCMA) and to human CD3ε (CD3) provided herein, for 72 hours, at a fixed effector T-cell (E) to target cell (T) ratio of 1:3. Co-cultures in the presence of bispecific antibody were performed in the presence of DMSO (control) or Compound 2. Cells were collected at the end of co-culture for analysis of target cell apoptosis and necrosis by flow cytometry using APC Annexin V Apoptosis Detection Kit with 7-AAD.

[6] = tested on: acute myeloid leukemia (AML); conditions: administered alone; cited from earlier work
[7] = combination of effector T-cell pretreatment and target cell pretreatment with Compound 2 (1 nM)
[8] = either effector T-cells (16 hours) or target cells (72 hours) alone pretreated with Compound 2 (1 nM)

Molecule	maximal target cell killing induced by the bispecific antibody [1]	potency of the bispecific antibody [1]	efficacy of the bispecific antibody [2, 7]	potentiation of the bispecific antibody [2, 7]	efficacy of target cell killing by the bispecific antibody [2, 8]	potency of target cell killing by the bispecific antibody [2, 8]	maximal target cell killing induced by the bispecific antibody [3]	potency of the bispecific antibody [3]	potency of the bispecific antibody [4]	maximal efficacy of target cell killing mediated by the bispecific antibody [5]	potency of the bispecific antibody [5]	response in treating acute myeloid leukemia (AML) at relapse [6]
N#Cc1ccc(N2CCN(Cc3ccc(COc4cccc5c4CN([C@H]4CCC(=O)NC4=O)C5=O)cc3)CC2)c(F)c1 [Compound 2, (S)-4-(4-(4-(((2-(2,6-dioxopiperidin-3-yl)-1-oxoisoindolin-4-yl)oxy)methyl)benzyl)piperazin-1-yl)-3-fluorobenzonitrile]	increased; also recorded: enhances	increased; also recorded: enhances	increase in efficacy	greatest potentiation	increased	increased	significantly increased	significantly increased	significantly increased	improved; also recorded: enhances	significantly increased; also recorded: enhances	–
Nc1cccc2c1C(=O)N(C1CCC(=O)NC1=O)C2=O (stereo not shown) [pomalidomide, reference compound]	not	–	–	–	–	–	–	–	–	–	–	–
CT-011: anti-PD-1 antibody, a humanized antibody	–	–	–	–	–	–	–	–	–	–	–	failed to show response
